{"source": "patent US10076117B2", "about": "“Pesticide formulation comprising a water soluble active ingredient and a penetration enhancer and use of the same” (ROTAM AGROCHEM INTERNATIONAL COMPANY LIMITED, priority 2014, dated 2018)", "origin": "cited, not measured here", "settings": "water", "data": [{"smiles": "COP(=O)(NC(C)=O)SC", "note": "(stereo not shown) [acephate]", "values": [{"measurement": "solubility", "value": "650 g in 1 L of water"}]}]}
